Laboratory results as given in patent US8426427B2, “Fused heterocyclic derivative, pharmaceutical composition comprising the derivative, and use of the composition for medical purposes” (Kissei Pharmaceutical Co., Ltd., priority 2007, dated 2013).

Assays:
[1] = target: T1, human GnRHR1 (Homo sapiens, UniProt P30968); assay: Inhibitory effect for the change of calcium levels in GnRH-stimulated cells (hGnRHR1#1 HEK293 cells); assay type: cell-based; conditions: hGnRHR1#1 cells (HEK293 stably expressing human GnRHR1), 10 nM GnRH added, FLIPR calcium dye; read-out: IC50 (drug concentration at which 50% GnRH-stimulated intracellular calcium flux was inhibited)
T1 construct: expressed in transfected cells
T1 sequence (P30968 1-328): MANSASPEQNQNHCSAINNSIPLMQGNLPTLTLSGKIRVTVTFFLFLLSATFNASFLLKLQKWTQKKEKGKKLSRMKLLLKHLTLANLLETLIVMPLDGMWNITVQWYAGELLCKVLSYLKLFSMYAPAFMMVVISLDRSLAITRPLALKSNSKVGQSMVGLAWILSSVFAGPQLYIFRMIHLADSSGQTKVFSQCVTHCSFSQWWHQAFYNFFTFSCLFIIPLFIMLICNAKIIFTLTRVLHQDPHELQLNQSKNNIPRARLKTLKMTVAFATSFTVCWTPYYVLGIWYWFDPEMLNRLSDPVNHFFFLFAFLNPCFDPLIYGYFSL
Description: 1) Cloning and Construction of the Vector Expressing Human GnRH Receptor1 (GnRHR1)
Using cDNA derived from human pituitary (BECTON DICKINSON) as a template, the DNA fragment coding 45 to 1115 by of human GnRHR1 (Accession No. L03380), which was reported by Kakar et al., was amplified by PCR method and inserted into the multi-cloning site of pcDNA3.1(+) (Invitrogen). The DNA sequence inserted was perfectly matched to the previously reported sequence.
2) Establishment of Cell Line Stably Expressing Human GnRH Receptor1 HEK293 Cells
The expression vector of human GnRHR1 gene, was digested by XhoI into a linear DNA. The linear DNA was transfected into HEK293 cells by means of lipofection (Lipofectamine2000: Invitrogen). Neomycin resistant cell lines were selected by culture in the medium containing G418 (Invitrogen) at 1 mg/mL, and then the change of calcium levels in GnRH-stimulated cells was measured by the method described below.
3) Assay of Inhibitory Effect for the Change of Calcium Levels in GnRH-Stimulated Cells
Antagonizing effect of compounds for human GnRHR1 was evaluated by depression of calcium levels in GnRH-stimulated cells. hGnRHR1#1 cells were seeded into a 96-well culture plate at a density of 1.5×10^5 cells/well and cultured for a day. […] Then, intracellular calcium levels were determined under the following condition by using FLEX STATION (Molecular Devices). […]

[2] = Assay for oral absorbability: plasma drug concentration after oral administration to rats; assay type: in vivo, SD rats; conditions: for C360 (plasma drug concentration at 360 minutes after administration) / Cmax: fasted male SD rats, oral 3 mg/kg, plasma; for availability by oral administration compared with Control compound 1 / sustainability of blood concentration 6 hours after oral administration compared with Control compound / Cmax: rat; for Cmax: LC-MS/MS, read-out: Cmax (maximum plasma drug concentration)
Protocol: Assay for Oral Absorbability
1) Preparation of the Samples for Measurement of the Drug Concentration after Oral Administration
As experimental animal, overnight fasted SD rats (Charles River, male, 7 weeks of age, 170-210 g) were used. Three mg of a test compound was dissolved by adding 0.2 mL of N,N-dimethylacetoamide, 9.794 mL of 0.5% aqueous methylcellulose solution and 0.006 mL of 2N NaOH, and then 0.3 mg/mL solution was prepared. The body weights of rats were measured, and the solution of the test compound was administered orally at the dose of 10 mL/kg (3 mg/kg). The oral administration was performed with gastric tube for rat and 2.5 mL syringe. The sampling times for collection of blood were 15, 30, 60, 120, 240 and 360 minutes after the oral administration. The blood was centrifuged, and the plasma was used as the sample for measurement of the drug concentration in blood.
2) Measurement of the Drug Concentration
To 0.025 mL of the plasma obtained in 1) described above, 0.1 mL of an adequate internal standard material was added according to the usual method, and then deproteinization was performed by adding 0.875 mL of acetonitrile. After centrifugation, 0.005 mL of the supernatant was injected into LC-MS/MS. The drug concentration in plasma was measured by LC-MS/MS method under the conditions as follows. To 0.05 mL of the blank plasma were added the internal standard material and various test compounds adequately according to the usual method, similar operating described above was done, and then the standard curves were prepared.
In the oral administration, the maximum plasma drug concentration (Cmax) and the plasma drug concentration at 360 minutes after administration (C360) are shown in Tables 8 and 9, respectively.

Structure (SMILES) | IC50 [1] | C360 (plasma drug concentration at 360 minutes after administration) [2] | availability by oral administration compared with Control compound 1 [2] | sustainability of blood concentration 6 hours after oral administration compared with Control compound [2] | Cmax [2]
COCCOc1ccc(F)c(F)c1CN(C)c1ccc(F)c(-n2c(=O)[nH]c3csc(C(=O)O)c3c2=O)c1 [Example 1, 5-Carboxy-3-(2-fluoro-5-{N-[2,3-difluoro-6-(2-methoxyethoxy)benzyl]-N-methylamino}-phenyl)thieno[3,4-d]pyrimidine-2,4(1H,3H)-dione] | 51 nM | 1010 ng/mL | more excellent availability than the Control compound 1 | more superior in sustainability than the Control compound | 17600 ng/mL
CN(Cc1c(F)cccc1F)c1ccc(F)c(-n2c(=O)[nH]c3csc(C(=O)O)c3c2=O)c1 [Example 2] | 133 nM | 2170 ng/mL | more excellent availability than the Control compound 1 | more superior in sustainability than the Control compound | 14900 ng/mL
